# Measurements published in PubChem BioAssay (NCI).
#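 GI50 marks 50% less growth. TGI: concentration producing complete growth inhibition.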
# Key:
# Assay in all cases: NCI-60 cell line screen, 384-well format
# NCI-H226 lung = tested on: NCI-H226 lung
# SK-MEL-2 melanoma = tested on: SK-MEL-2 melanoma
# OVCAR-5 ovarian = tested on: OVCAR-5 ovarian
# MDA-MB-468 breast = tested on: MDA-MB-468 breast
# MOLT-4 leukemia = tested on: MOLT-4 leukemia
# SR leukemia = tested on: SR leukemia
# SK-MEL-28 melanoma = tested on: SK-MEL-28 melanoma
# ACHN renal = tested on: ACHN renal
# OVCAR-3 ovarian = tested on: OVCAR-3 ovarian
# RXF 393 renal = tested on: RXF 393 renal
# T-47D breast = tested on: T-47D breast
# NCI-H522 lung = tested on: NCI-H522 lung
# SNB-75 CNS = tested on: SNB-75 CNS
# HT29 colon = tested on: HT29 colon
# 786-0 renal = tested on: 786-0 renal
# SN12C renal = tested on: SN12C renal
# CCRF-CEM leukemia = tested on: CCRF-CEM leukemia
# SK-MEL-5 melanoma = tested on: SK-MEL-5 melanoma
# DU-145 prostate = tested on: DU-145 prostate
# OVCAR-8 ovarian = tested on: OVCAR-8 ovarian
# HCC-2998 colon = tested on: HCC-2998 colon
# NCI/ADR-RES ovarian = tested on: NCI/ADR-RES ovarian
# MDA-MB-231 breast = tested on: MDA-MB-231 breast
# SF-295 CNS = tested on: SF-295 CNS
# SF-268 CNS = tested on: SF-268 CNS
# HS 578T breast = tested on: HS 578T breast
# RPMI-8226 leukemia = tested on: RPMI-8226 leukemia
# A549 NSCLC = tested on: A549 NSCLC
# SK-OV-3 ovarian = tested on: SK-OV-3 ovarian
# HCT-116 colon = tested on: HCT-116 colon
# SF-539 CNS = tested on: SF-539 CNS
# IGROV1 ovarian = tested on: IGROV1 ovarian
# NCI-H322M lung = tested on: NCI-H322M lung
# M14 melanoma = tested on: M14 melanoma
# UACC-257 melanoma = tested on: UACC-257 melanoma
# HCT-15 colon = tested on: HCT-15 colon
# OVCAR-4 ovarian = tested on: OVCAR-4 ovarian
# MALME-3M melanoma = tested on: MALME-3M melanoma
# MCF7 breast = tested on: MCF7 breast
# EKVX NSCLC = tested on: EKVX NSCLC
# UO-31 renal = tested on: UO-31 renal
# HOP-62 NSCLC = tested on: HOP-62 NSCLC
# K-562 leukemia = tested on: K-562 leukemia
# UACC-62 melanoma = tested on: UACC-62 melanoma
# SW-620 colon = tested on: SW-620 colon
# MDA-MB-435 melanoma = tested on: MDA-MB-435 melanoma
# HOP-92 NSCLC = tested on: HOP-92 NSCLC
smiles,measurement,setting,value
Cc1[nH]nc2ncc(C(=O)N3CCC[C@H]3c3ccc(Cl)cc3)cc12,GI50,NCI-H226 lung,39.1 µM
same,TGI,NCI-H226 lung,> 100 µM
same,GI50,SK-MEL-2 melanoma,25.3 µM
same,TGI,SK-MEL-2 melanoma,77.5 µM
same,GI50,OVCAR-5 ovarian,> 100 µM
same,TGI,OVCAR-5 ovarian,> 100 µM
same,GI50,MDA-MB-468 breast,21.2 µM
same,TGI,MDA-MB-468 breast,68.5 µM
same,GI50,MOLT-4 leukemia,25.5 µM
same,TGI,MOLT-4 leukemia,> 72.7 µM
same,GI50,SR leukemia,11.7 µM
same,TGI,SR leukemia,25 µM
same,GI50,SK-MEL-28 melanoma,> 100 µM
same,TGI,SK-MEL-28 melanoma,> 100 µM
same,GI50,ACHN renal,22.1 µM
same,TGI,ACHN renal,62 µM
same,GI50,OVCAR-3 ovarian,26.1 µM
same,TGI,OVCAR-3 ovarian,99.8 µM
same,GI50,RXF 393 renal,19.7 µM
same,TGI,RXF 393 renal,46.7 µM
same,GI50,T-47D breast,68.2 µM
same,TGI,T-47D breast,> 100 µM
same,GI50,NCI-H522 lung,21.3 µM
same,TGI,NCI-H522 lung,> 100 µM
same,GI50,SNB-75 CNS,> 78.1 µM
same,TGI,SNB-75 CNS,> 100 µM
same,GI50,HT29 colon,> 100 µM
same,TGI,HT29 colon,> 100 µM
same,GI50,786-0 renal,52.8 µM
same,TGI,786-0 renal,> 100 µM
same,GI50,SN12C renal,> 100 µM
same,TGI,SN12C renal,> 100 µM
same,GI50,CCRF-CEM leukemia,15.6 µM
same,TGI,CCRF-CEM leukemia,30.6 µM
same,GI50,SK-MEL-5 melanoma,50.8 µM
same,TGI,SK-MEL-5 melanoma,> 100 µM
same,GI50,DU-145 prostate,> 100 µM
same,TGI,DU-145 prostate,> 100 µM
same,GI50,OVCAR-8 ovarian,> 100 µM
same,TGI,OVCAR-8 ovarian,> 100 µM
same,GI50,HCC-2998 colon,32.3 µM
same,TGI,HCC-2998 colon,> 100 µM
same,GI50,NCI/ADR-RES ovarian,30.8 µM
same,TGI,NCI/ADR-RES ovarian,> 100 µM
same,GI50,MDA-MB-231 breast,> 100 µM
same,TGI,MDA-MB-231 breast,> 100 µM
same,GI50,SF-295 CNS,55.2 µM
same,TGI,SF-295 CNS,> 100 µM
same,GI50,SF-268 CNS,> 100 µM
same,TGI,SF-268 CNS,> 100 µM
same,GI50,HS 578T breast,41.4 µM
same,TGI,HS 578T breast,> 100 µM
same,GI50,RPMI-8226 leukemia,54.5 µM
same,TGI,RPMI-8226 leukemia,> 100 µM
same,GI50,A549 NSCLC,> 100 µM
same,TGI,A549 NSCLC,> 100 µM
same,GI50,SK-OV-3 ovarian,> 100 µM
same,TGI,SK-OV-3 ovarian,> 100 µM
same,GI50,HCT-116 colon,37.2 µM
same,TGI,HCT-116 colon,> 100 µM
same,GI50,SF-539 CNS,> 91.4 µM
same,TGI,SF-539 CNS,> 100 µM
same,GI50,IGROV1 ovarian,44.7 µM
same,TGI,IGROV1 ovarian,> 100 µM
same,GI50,NCI-H322M lung,> 100 µM
same,TGI,NCI-H322M lung,> 100 µM
same,GI50,M14 melanoma,> 100 µM
same,TGI,M14 melanoma,> 100 µM
same,GI50,UACC-257 melanoma,> 100 µM
same,TGI,UACC-257 melanoma,> 100 µM
same,GI50,HCT-15 colon,> 78.6 µM
same,TGI,HCT-15 colon,> 100 µM
same,GI50,OVCAR-4 ovarian,> 100 µM
same,TGI,OVCAR-4 ovarian,> 100 µM
same,GI50,MALME-3M melanoma,> 100 µM
same,TGI,MALME-3M melanoma,> 100 µM
same,GI50,MCF7 breast,31.8 µM
same,TGI,MCF7 breast,> 100 µM
same,GI50,EKVX NSCLC,> 100 µM
same,TGI,EKVX NSCLC,> 100 µM
same,GI50,UO-31 renal,46.6 µM
same,TGI,UO-31 renal,> 100 µM
same,GI50,HOP-62 NSCLC,> 54.9 µM
same,TGI,HOP-62 NSCLC,> 100 µM
same,GI50,K-562 leukemia,20.9 µM
same,TGI,K-562 leukemia,44.1 µM
same,GI50,UACC-62 melanoma,23.4 µM
same,TGI,UACC-62 melanoma,48.6 µM
same,GI50,SW-620 colon,30.9 µM
same,TGI,SW-620 colon,> 79.6 µM
same,GI50,MDA-MB-435 melanoma,> 100 µM
same,TGI,MDA-MB-435 melanoma,> 100 µM
same,GI50,HOP-92 NSCLC,> 55.6 µM
same,TGI,HOP-92 NSCLC,> 89.7 µM
